Test results from patent publication US20250084041A1, “ANTIMICROBIAL COMPOUNDS AND METHODS” (Curza Global, LLC, priority 2021, published 2025).
Counter-ions that a name gives are not always drawn.

Key:
E. faecalis (Ef) = assay: Broth microdilution MIC, E. faecalis; type: cell-based; settings: Enterococcus faecalis, read-out: Ef + bicarb 25 (MIC)
In short: (§1)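 Colonies grown in CAMHB at 35±2° C to 0.5 McFarland (A600nm), then diluted and added at 5×10^4 CFU/well to two-fold compound series in CAMHB, bicarbonate-supplemented CAMHB (25 mM) or serum-supplemented CAMHB (0-50% human serum, heat inactivated). MIC read per modified CLSI M07-A9.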

S. aureus (Sa) = assay: Broth microdilution MIC, S. aureus; type: cell-based; settings: Staphylococcus aureus, read-out: Sa + bicarb 25 (MIC)
In short: as §1

E. coli (Ec) = assay: Broth microdilution MIC, E. coli; type: cell-based; settings: Escherichia coli, read-out: E. coli + bicarb 25 (MIC)
In short: as §1

P. aeruginosa (Pa) = assay: Broth microdilution MIC, P. aeruginosa; type: cell-based; settings: Pseudomonas aeruginosa, read-out: Pa + bicarb 25 (MIC)
In short: as §1

A. baumannii (Ab) = assay: Broth microdilution MIC, A. baumannii; type: cell-based; settings: Acinetobacter baumannii, read-out: Ab + bicarb 25 (MIC)
In short: as §1

E. coli S30 extract = assay: E. coli S30 extract: inhibition of bacterial protein synthesis (luciferase); type: biochemical; settings: 37° C. 1 hour
In short: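 Coupled transcription-translation in E. coli S30 extract, programmed with pBESTluc plasmid, was run with 8-point 2-fold compound dilutions for 1 h at 37 °C. After a cold stop, luciferase luminescence was read and percent inhibition calculated against no-inhibitor controls.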

[1] = target: Rabbit Reticulocyte Lysate; assay: Rabbit Reticulocyte Lysate: inhibition of eukaryotic protein synthesis (luciferase); type: biochemical; settings: 30° C. 90 minutes, read-out: Retic. IC50
In short: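 Nuclease-treated rabbit reticulocyte lysate translating luciferase control RNA with complete amino acids; compounds in 8-point 2-fold dilutions, 90 min at 30° C. Luminescence read after luciferase reagent; % inhibition versus water (no-inhibitor) control, no-RNA wells as background.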

| SMILES | MIC (E. faecalis (Ef)) | MIC (S. aureus (Sa)) | MIC (E. coli (Ec)) | MIC (P. aeruginosa (Pa)) | MIC (A. baumannii (Ab)) | IC50 (E. coli S30 extract) | IC50 [1] |
| --- | --- | --- | --- | --- | --- | --- | --- |
| CC(C)(N)C(=O)N1CCN(C(=O)Nc2ccn([C@H]3CC[C@H](CN[C@H]4CC[C@H](N)CC4)CC3)c(=O)n2)CC1 [Compound 18, 4-(2-Amino-2-methylpropanoyl)-N-(1-(trans-4-(((trans-4-aminocyclohexyl)amino)methyl)cyclohexyl)-2-oxo-1,2-dihydropyrimidin-4-yl)piperazine-1-carboxamide hydrochloride salt] | 8 to 32 µg/mL | < 8 µg/mL | < 8 µg/mL | > 32 µg/mL | > 32 µg/mL | < 500 nM | ≥ 1000 nM |
| CN(C[C@H]1CC[C@H](n2ccc(NC(=O)N3CCN(C(=O)C(C)(C)N)CC3)nc2=O)CC1)[C@H]1CC[C@H](N)CC1 [Compound 19, 4-(2-Amino-2-methylpropanoyl)-N-(1-(trans-4-(((trans-4-aminocyclohexyl)(methyl)amino)methyl)cyclohexyl)-2-oxo-1,2-dihydropyrimidin-4-yl)piperazine-1-carboxamide hydrochloride salt] | < 8 µg/mL | < 8 µg/mL | < 8 µg/mL | > 32 µg/mL | 8 to 32 µg/mL | < 500 nM | ≥ 1000 nM |
| CC(C)(N)C(=O)N1CCN(C(=O)Nc2ccn([C@H]3CC[C@H](CN4CCC5(CC4)CC(N)C5)CC3)c(=O)n2)CC1 [Compound 20, 4-(2-Amino-2-methylpropanoyl)-N-(1-(trans-4-((2-amino-7-azaspiro[3.5]nonan-7-yl)methyl)cyclohexyl)-2-oxo-1,2-dihydropyrimidin-4-yl)piperazine-1-carboxamide hydrochloride salt] | < 8 µg/mL | < 8 µg/mL | < 8 µg/mL | 8 to 32 µg/mL | < 8 µg/mL | < 500 nM | ≥ 1000 nM |
| CCN(C[C@H]1CC[C@H](n2ccc(NC(=O)N3CCN(C(=O)C(C)(C)N)CC3)nc2=O)CC1)[C@H]1CC[C@H](N)CC1 [Compound 21, 4-(2-Amino-2-methylpropanoyl)-N-(1-(trans-4-(((trans-4-aminocyclohexyl)(ethyl)amino)methyl)cyclohexyl)-2-oxo-1,2-dihydropyrimidin-4-yl)piperazine-1-carboxamide hydrochloride salt] | < 8 µg/mL | < 8 µg/mL | < 8 µg/mL | 8 to 32 µg/mL | 8 to 32 µg/mL | < 500 nM | ≥ 1000 nM |
| CC(C)(N)C(=O)N1CCN(C(=O)Nc2ccn(C3=CCC(CN4CCC5(CC4)CC(N)C5)CC3)c(=O)n2)CC1 (stereo not shown) [Compound 25, 4-(2-Amino-2-methylpropanoyl)-N-(1-(4-((2-amino-7-azaspiro[3.5]nonan-7-yl)methyl)cyclohexan-1-en-1-yl)-2-oxo-1,2-dihydropyrimidin-4-yl)piperazine-1-carboxamide hydrochloride salt] | < 8 µg/mL | < 8 µg/mL | < 8 µg/mL | 8 to 32 µg/mL | < 8 µg/mL | < 500 nM | ≥ 1000 nM |
| CC(C)(N)C(=O)N1CCN(C(=O)Nc2ccn(C3=CCC(CN4CCC(CCN)CC4)CC3)c(=O)n2)CC1 (stereo not shown) [Compound 26, 4-(2-Amino-2-methylpropanoyl)-N-(1-(4-((4-(2-aminoethyl)piperidin-1-yl)methyl)cyclohex-1-en-1-yl)-2-oxo-1,2-dihydropyrimidin-4-yl)piperazine-1-carboxamide hydrochloride salt] | < 8 µg/mL | < 8 µg/mL | < 8 µg/mL | > 32 µg/mL | > 32 µg/mL | < 500 nM | ≥ 1000 nM |
| CN(CC1CC=C(n2ccc(NC(=O)N3CCN(C(=O)C(C)(C)N)CC3)nc2=O)CC1)[C@H]1CC[C@H](N)CC1 (stereo partly drawn) [Compound 30, trans-4-(2-Amino-2-methylpropanoyl)-N-(1-(4-(((4-aminocyclohexyl)(methyl)amino)methyl)cyclohex-1-en-1-yl)-2-oxo-1,2-dihydropyrimidin-4-yl)piperazine-1-carboxamide hydrochloride salt] | 8 to 32 µg/mL | < 8 µg/mL | < 8 µg/mL | > 32 µg/mL | > 32 µg/mL | < 500 nM | ≥ 1000 nM |
| CC(C)(N)C(=O)N1CCN(C(=O)Nc2ccn(C3CCC(CN[C@H]4C[C@H](N)C4)CC3)c(=O)n2)CC1 (stereo partly drawn) [Compound 43, trans-4-(2-Amino-2-methylpropanoyl)-N-(1-(4-(((3-aminocyclobutyl)amino)methyl)cyclohexyl)-2-oxo-1,2-dihydropyrimidin-4-yl)piperazine-1-carboxamide hydrochloride salt] | 8 to 32 µg/mL | < 8 µg/mL | < 8 µg/mL | > 32 µg/mL | > 32 µg/mL | < 500 nM | ≥ 1000 nM |
| CC(C)(N)C(=O)N1CCN(C(=O)Nc2ccn(C3CCC(CN[C@H]4C[C@@H](N)C4)CC3)c(=O)n2)CC1 (stereo partly drawn) [Compound 44, cis-4-(2-Amino-2-methylpropanoyl)-N-(1-(4-(((3-aminocyclobutyl)amino)methyl)cyclohexyl)-2-oxo-1,2-dihydropyrimidin-4-yl)piperazine-1-carboxamide hydrochloride salt] | 8 to 32 µg/mL | < 8 µg/mL | < 8 µg/mL | > 32 µg/mL | > 32 µg/mL | < 500 nM | ≥ 1000 nM |
| CC(C)(N)C(=O)N1CCN(C(=O)Nc2ccn(C3CCC(CN4CCC5(N)CC5C4)CC3)c(=O)n2)CC1 (stereo not shown) [Compound 45, 4-(2-Amino-2-methylpropanoyl)-N-(1-(4-((6-amino-3-azabicyclo[4.1.0]heptan-3-yl)methyl)cyclohexyl)-2-oxo-1,2-dihydropyrimidin-4-yl)piperazine-1-carboxamide hydrochloride salt] | < 8 µg/mL | < 8 µg/mL | < 8 µg/mL | > 32 µg/mL | > 32 µg/mL | < 500 nM | ≥ 1000 nM |
| CC(C)(N)C(=O)N1CCN(C(=O)Nc2ccn(C3CCC(CN4CC[C@@H](CN)C4)CC3)c(=O)n2)CC1 (stereo partly drawn) [Compound 46, (S)-4-(2-Amino-2-methylpropanoyl)-N-(1-(4-((3-(aminomethyl)pyrrolidin-1-yl)methyl)cyclohexyl)-2-oxo-1,2-dihydropyrimidin-4-yl)piperazine-1-carboxamide hydrochloride salt] | > 32 µg/mL | < 8 µg/mL | < 8 µg/mL | > 32 µg/mL | > 32 µg/mL | < 500 nM | ≥ 1000 nM |
| CC(C)(N)C(=O)N1CCN(C(=O)Nc2ccn(C3CCC(CN4CC[C@H](CN)C4)CC3)c(=O)n2)CC1 (stereo partly drawn) [Compound 47, (R)-4-(2-Amino-2-methylpropanoyl)-N-(1-(4-((3-(aminomethyl)pyrrolidin-1-yl)methyl)cyclohexyl)-2-oxo-1,2-dihydropyrimidin-4-yl)piperazine-1-carboxamide Hydrochloride] | > 32 µg/mL | < 8 µg/mL | < 8 µg/mL | > 32 µg/mL | > 32 µg/mL | < 500 nM | ≥ 1000 nM |
| CCN(C[C@H]1CC[C@H](n2ccc(NC(=O)N3CCN(C(=O)C(C)(C)N)CC3)nc2=O)CC1)C1CC2(CC(N)C2)C1 (stereo partly drawn) [Compound 50, trans-4-(2-Amino-2-methylpropanoyl)-N-(1-(4-(((6-aminospiro[3.3]heptan-2-yl)(ethyl)amino)methyl)cyclohexyl)-2-oxo-1,2-dihydropyrimidin-4-yl)piperazine-1-carboxamide hydrochloride salt] | < 8 µg/mL | < 8 µg/mL | < 8 µg/mL | > 32 µg/mL | 8 to 32 µg/mL | < 500 nM | ≥ 1000 nM |
| CC(C)(N)C(=O)N1CCN(C(=O)Nc2ccn([C@H]3CC[C@H](CN4CC[C@H](CN)C4)CC3)c(=O)n2)CC1 [Compound 51, (R)-Trans-4-(2-amino-2-methylpropanoyl)-N-(1-(4-((3-(aminomethyl)pyrrolidin-1-yl)methyl)cyclohexyl)-2-oxo-1,2-dihydropyrimidin-4-yl)piperazine-1-carboxamide Hydrochloride] | 8 to 32 µg/mL | < 8 µg/mL | < 8 µg/mL | > 32 µg/mL | > 32 µg/mL | < 500 nM | ≥ 1000 nM |
| CC(C)(N)C(=O)N1CCN(C(=O)Nc2ccn([C@H]3CC[C@H](CN4CC(N)C4)CC3)c(=O)n2)CC1 [Compound 52, trans-4-(2-Amino-2-methylpropanoyl)-N-(1-(4-((3-aminoazetidin-1-yl)methyl)cyclohexyl)-2-oxo-1,2-dihydropyrimidin-4-yl)piperazine-1-carboxamide hydrochloride salt] | > 32 µg/mL | 8 to 32 µg/mL | < 8 µg/mL | > 32 µg/mL | > 32 µg/mL | 500 to 1000 nM | ≥ 1000 nM |
| CC(C)(N)C(=O)N1CCN(C(=O)Nc2ccn(C3CCC(CNC4CC5(CC(N)C5)C4)CC3)c(=O)n2)CC1 (stereo not shown) [Compound 53, 4-(2-Amino-2-methylpropanoyl)-N-(1-(4-(((6-aminospiro[3.3]heptan-2-yl)amino)methyl)cyclohexyl)-2-oxo-1,2-dihydropyrimidin-4-yl)piperazine-1-carboxamide hydrochloride salt] | 8 to 32 µg/mL | < 8 µg/mL | 8 to 32 µg/mL | > 32 µg/mL | > 32 µg/mL | < 500 nM | ≥ 1000 nM |
